Reference: patent US20100068747A1, “Generic Assay for Monitoring Endocytosis” (Evotec Technologies GmbH, priority 2005, published 2010)
“Also recorded” adds a separate entry of the source.

Experiments:
CHO/ETAR cells = experiment: Lectin labeling of live cells, CHO/ETAR; format: cell-based; conditions: TRITC-lectin, 10 nM at maximum
Procedure: (§1) Lectin labeling of live cells was conducted as follows: Cells were seeded as described above. After 24 hours cells were washed once with PBS and incubated in the incubator for another 2 hours in the respective standard medium without serum supplement to deprive them of serum factor mediated stimuli. This step was termed starvation period. Subsequently, cells were washed gently with PBS and incubated with 37° C. tempered assay medium comprised of Hank's Balanced Salt Solution (HBSS) pH 7.4, containing 20 mM HEPES and 30 mM D-glucose. The plate was left at RT for 30 minutes to slowly level its temperature and, thus, avoid capturing of temperature drop induced membrane dynamics. This period was termed leveling period. Then, assay medium was withdrawn and wells refilled with TRITC-lectin solutions at RT to start cell labeling. Several lectin concentrations in the low nano-molar range were tested. Molar concentrations were calculated from the data provided by Vector Labs. The plate was placed on a rotating shaker at low revolutions for 10 minutes while incubating. The start of the lectin incubation is referred to as assay starting point with t=0 min. After the 10 min incubation period the cells were gently washed with PBS and wells refilled with assay buffer at RT. Instantly thereafter, fluorescence signals were monitored predominately using the epifluorescence microscope.
(§2) The following microscopy and image analysis techniques were employed. When utilizing the epifluorescence microscope magnifications were adjusted according to the purpose of observation, e.g. single cell vs. cell collective. Concerning the filters U-MNU was used for Hoechst, U-MSWB for GFP, and U-N41007 for TRITC detection. Hoechst images were taken at 50 ms exposure time, GFP images at 100 to 200 ms and TRITC images needed 500 to 1000 ms. Overlay images were assembled with AnalySIS and tuned in color intensity to obtain the desired color contrast. Images taken to compare two experimental conditions, e.g. control vs. stimulus, featured identical exposure parameters. If possible, well areas were chosen that reflect similar states of confluence. Utilizing the Opera confocal fluorescence imager, the instrument was calibrated running standard methods for skew cropping (spatial camera alignments) and camera intensity normalization.

[1] = system: CHO/PAR-2 cell membrane protein; experiment: Lectin blotting of PAR-2 membrane sample; format: binding
Procedure: (§3) Membrane preparation was conducted as follows: Cells were cultured in five T175 flasks until confluency. Confluent cells were detached by applying 3 ml of EDTA solution onto the PBS washed cells. Following a 20-minute incubation at 37° C. and 5% CO2, cells were resuspended in 12 ml of starvation medium (standard medium without FCS), counted, and centrifuged in a Heraeus Megafuge 1.0R at 133 rcf for 4 minutes. All subsequent steps were carried out on ice and with ice cold solutions. After unification of all pellet fractions, hypotonic lysis buffer was added to the cells at a ratio of 1 ml per 5*10^7 cells. Additionally, protease inhibitor cocktail was added to 50 μl per 5*10^7 cells. Cells were homogenized with 30 strokes in a 5 ml potter on ice, centrifuged at 4° C. and 917 rcf for 10 minutes, and the supernatant was stored in an ultracentrifuge tube on ice. The pellet fraction was homogenized and centrifuged once again as described above. The supernatants of both procedures were unified and centrifuged at 4° C. and 100,000 rcf for 45 minutes in a Sorvall ultra-centrifuge. The supernatant of this centrifugation procedure was withdrawn and the pellet dissolved in 0.5 ml or 1.0 ml modified SDS PAGE loading buffer containing Tris-HCl, SDS, glycerol, but no β-mercapto-ethanol or dyes and stored in small aliquots of 50 μl at −20° C.
(§4) SDS-Page of membrane samples was conducted as follows: Discontinuous 12% polyacrylamide gels were prepared according to a standard protocol. Broad range marker and 25 μg membrane protein were mixed 1:1 with loading buffer and loaded five times onto a mini gel in alternating order. The gels were run at U=100 V for the first 20 minutes. Subsequently, voltage was increased to U=150 V. The run was aborted as soon as the pyronin G band reached the end of the gel. For coomassie staining, gels were put in coomassie staining solution on a shaker at low revolutions for 45 min. The staining solution was removed and the gel incubated with destaining solution for one to two hours, exchanging the solution several times until the desired contrast was obtained.
Blotting of membrane samples was conducted as follows: For blotting, 3 mm packs of Whatman papers were extensively soaked in one of the diverging blotting buffers, AB I, AB II, and CB, and a pile was assembled in a semi-dry Trans-Blot 3D system from Bio-Rad as depicted in the sketch of FIG. 2. Hybond nitrocellulose membrane was submerged in AB II prior to assembly. To smooth out any air bubbles from the pile, a Pasteur pipette was rolled several times over the top layer. The apparatus was closed and ran at U=25 V for 45 minutes. Then, the pile was disassembled, the membrane submerged in Ponceau S solution and gently swayed for 2 minutes. For destaining, ddH2O was substituted for the staining solution, and the membrane was briefly rinsed twice. After drying under ambient conditions, the marker bands were marked with a ballpoint-pen. The membrane was cut into slices each displaying one marker and one sample lane.
Probing of membrane samples was conducted as follows: For classical western blotting, membranes were blocked in PBS containing 5% low fat dried milk powder. They were placed on a rotating shaker at low revolutions for 1 hour. Subsequently, membranes were sealed in plastic bags with blocking solution additionally containing 1 μg/ml anti-PAR-2 antibody (1:400) or 0.5 μg/ml of anti-ETAR antibody (1:500), depending on the respective recombinant cell type used for the sample. […]

[2] = system: CHO/ETAR cell membrane protein; experiment: Lectin blotting of ETAR membrane sample; format: binding
Procedure: as §3
as §4, with “obtained. […]” for “obtained.”

CHO/PAR-2 cells [3] = experiment: Lectin labeling of fixed cells, CHO/PAR-2; format: cell-based; conditions: TRITC-lectin 10 nM and 20 nM
Procedure: Lectin labeling of fixed cells was conducted as follows: To detach confluent cells in order to prepare experiments for internalization studies, cells were always treated with EDTA solution instead of trypsin solution. For all seeding, washing, and labeling steps in 96-well plates a working volume of 100 μl per well was assessed. Cells were seeded out into a 96-well plate at different concentrations. U2OS/ETAR-GFP suspensions were adjusted to yield 2*10^4 cells/well, both of the CHO cell lines must be at 2.5*10^4 cells/well. Cells became confluent after 24 hours of incubation. In the following, they were washed with phosphate buffered saline (PBS) and fixed with 3% PFA for 20 minutes at RT. Then, cells were washed again with PBS and incubated in 10 nM and 20 nM solutions of each TRITC-lectin candidate in PBS, respectively. Again, cells were washed with PBS to remove excess lectin, and wells were refilled with PBS for analysis. For specificity controls, lectin solutions were incubated for 30 minutes prior to the application with an excess of the monosaccharide that represents the respective glyco-epitope.
as §2

CHO/PAR-2 cells [4] = experiment: Lectin labeling of live cells, CHO/PAR-2; format: cell-based; conditions: TRITC-lectin, 10 nM at maximum
Procedure: as §1, §2

Substance: succinylated Triticum vulgaris (wheat germ) agglutin [sWGA]
- Live cell staining of CHO/ETAR (CHO/ETAR cells): single spot formation continued fairly slowly
- striking bands below 35 kDa ([1]; PAR-2 sample): at least nine
- band at the same height as the western band (55 kDa, anti-PAR-2) ([1]; biotinylated lectin 5 μg/ml): one at the same height as the western band; also recorded: intense band
- bands detected above 35 kDa ([1]; biotinylated lectin 5 μg/ml, exposure one to five minutes): two
- bands that stood out below 35 kDa ([2]; ETAR sample): five
- band at the same height as in the western (47 kDa, anti-ETAR) ([2]; biotinylated lectin 5 μg/ml): very faint band
- Staining of CHO/PAR-2 (CHO/PAR-2 cells [3]): signals clearly marking individual cells; also recorded: cell surface
- Live cell staining of CHO/PAR-2 (CHO/PAR-2 cells [4]): spot formation
